Data taken from US7834030B2, “Phenyl-[1,2,4]-oxadiazol-5-one derivatives, pharmaceutical compositions and therapeutic use thereof” (Sanofi-Aventis, priority 2005, dated 2010).

Molecular target: T1, human PPARalpha (Homo sapiens, UniProt Q07869)
T1 construct: human PPARalpha receptor (amino acids S167-Y468); expressed in transfected cells; plasmid pcDNA3
T1 sequence (Q07869 167-468): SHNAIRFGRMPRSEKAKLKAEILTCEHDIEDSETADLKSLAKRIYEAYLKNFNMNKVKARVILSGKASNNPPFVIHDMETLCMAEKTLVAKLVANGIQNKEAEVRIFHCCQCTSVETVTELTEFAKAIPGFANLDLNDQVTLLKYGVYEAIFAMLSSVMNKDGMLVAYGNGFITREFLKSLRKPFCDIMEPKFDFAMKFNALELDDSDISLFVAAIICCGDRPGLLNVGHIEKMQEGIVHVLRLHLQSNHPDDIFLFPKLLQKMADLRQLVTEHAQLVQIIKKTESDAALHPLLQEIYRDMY
Assay: cellular PPARalpha assay (GAL4 luciferase reporter, stably transfected HEK cell line)
Assay type: cell-based
Method: The activity of the compounds was tested through the determination of EC50 values of PPAR agonists in the cellular PPARalpha assay. The potency of substances which bind to human PPARalpha and activate it in an agonistic manner was analyzed using a stably transfected HEK cell line (HEK=human embryo kidney) which is referred to here as PPARalpha reporter cell line. It contains two genetic elements, a luciferase reporter element (pdeltaM-GAL4-Luc-Zeo) and a PPARalpha fusion protein (GR-GAL4-humanPPARalpha-LBD) which mediates expression of the luciferase reporter element depending on a PPARalpha ligand. The stably and constitutively expressed fusion protein GR-GAL4-humanPPARalpha-LBD binds in the cell nucleus of the PPARalpha reporter cell line via the GAL4 protein portion to the GAL4 DNA binding motifs 5′-upstream of the luciferase reporter element which is stably integrated in the genome of the cell line. There is only weak expression of the luciferase reporter gene in the absence of a PPARalpha ligand if fatty acid-depleted fetal calf serum (cs-FCS) is used in the assay. PPARalpha ligands bind and activate the PPARalpha fusion protein and thereby stimulate the expression of the luciferase reporter gene. The luciferase which is formed can be detected by means of chemiluminescence via an appropriate substrate.
The PPARalpha reporter cell line was prepared in two stages. Firstly, the luciferase reporter element was constructed and stably transfected into HEK cells. For this purpose, five binding sites of the yeast transcription factor GAL4 (Accession # AF264724) were cloned in 5′-upstream of a 68 bp-long minimal MMTV promoter (Accession # V01175). The minimal MMTV promoter section contains a CCAAT box and a TATA element in order to enable efficient transcription by RNA polymerase II. The cloning and sequencing of the GAL4-MMTV construct took place in analogy to the description of Sambrook J. et. al. (Molecular cloning, Cold Spring Harbor Laboratory Press, 1989). Then the complete Photinus pyralis gene (Accession # M15077) was cloned in 3′-downstream of the GAL4-MMTV element. After sequencing, the luciferase reporter element consisting of five GAL4 binding sites, MMTV promoter and luciferase gene was recloned into a plasmid which confers zeocin resistance in order to obtain the plasmid pdeltaM-GAL4-Luc-Zeo. This vector was transfected into HEK cells in accordance with the statements in Ausubel, F. M. et al. (Current protocols in molecular biology, Vol. 1-3, John Wiley & Sons, Inc., 1995).
In a second step, the PPARalpha fusion protein (GR-GAL4-humanPPARalpha-LBD was introduced into the stable cell clone described. For this purpose, initially the cDNA coding for the N-terminal 76 amino acids of the glucocorticoid receptor (Accession # P04150) was linked to the cDNA section coding for amino acids 1-147 of the yeast transcription factor GAL4 (Accession # P04386). The cDNA of the ligand-binding domain of the human PPARalpha receptor (amino acids S167-Y468; Accession # S74349) was cloned in at the 3′-end of this GR-GAL4 construct. The fusion construct prepared in this way (GR-GAL4-humanPPARalpha-LBD) was recloned into the plasmid pcDNA3 (Invitrogen) in order to enable constitutive expression therein by the cytomegalovirus promoter. This plasmid was linearized with a restriction endonuclease and stably transfected into the previously described cell clone containing the luciferase reporter element. The finished PPARalpha reporter cell line which contains a luciferase reporter element and constitutively expresses the PPARalpha fusion protein (GR-GAL4-human PPARalpha-LBD) was isolated by selection with zeocin (0.5 mg/ml) and G418 (0.5 mg/ml).
The activity of PPARalpha agonists was determined in a 3-day assay, which is described below: […]

Compound	EC50 [nM]
CCC(Oc1ccc(-c2noc(=O)[nH]2)c(Cl)c1)c1sc(-c2ccc(C(F)(F)F)cc2)nc1C (racemic) [Example 4, 3-(2-Chloro-4-{1-[4-methyl-2-(4-trifluoromethyl-phenyl)-thiazol-5-yl]-propoxy}-phenyl)-4H-[1,2,4]oxadiazol-5-one]	12
Cc1nc(-c2ccc(C(F)(F)F)cc2)sc1C(Cc1ccccn1)Oc1ccc(-c2noc(=O)[nH]2)c(Cl)c1 (racemic) [Example 10, 3-(2-Chloro-4-{1-[4-methyl-2-(4-trifluoromethyl-phenyl)-thiazol-5-yl]-2-pyridin-2-yl-ethoxy}-phenyl)-4H-[1,2,4]oxadiazol-5-one]	4380
CCC(Oc1ccc(-c2noc(=O)[nH]2)c(C2CC2)c1)c1sc(-c2ccc(C(F)(F)F)cc2)nc1C (racemic) [Example 16, 3-(2-Cyclopropyl-4-{1-[4-methyl-2-(4-trifluoromethyl-Phenyl)-thiazol-5-yl]-propoxy}-phenyl)-4H-[1,2,4]oxadiazol-5-one]	117
Cc1nc(-c2ccc(C(F)(F)F)cc2)sc1C(Oc1ccc(-c2noc(=O)[nH]2)c(Cl)c1)C(F)(F)F (racemic) [Example 20, 3-(2-Chloro-4-{2,2,2-trifluoro-1-[4-methyl-2-(4-trifluoromethyl-phenyl)-thiazol-5-yl]-ethoxy}-phenyl)-4H-[1,2,4]oxadiazol-5-one]	307
Cc1nc(-c2ccc(C(F)(F)F)cc2)sc1C(OCc1ccc(-c2noc(=O)[nH]2)c(F)c1)C(F)(F)F (racemic) [Example 22, 3-(2-Fluoro-4-{2,2,2-trifluoro-1-[4-methyl-2-(4-trifluoromethyl-phenyl)-thiazol-5-yl]-ethoxymethyl}-phenyl)-4H-[1,2,4]oxadiazol-5-one]	2640
Cc1nc(-c2ccc(C(F)(F)F)cc2)sc1C(OCc1ccc(-c2noc(=O)[nH]2)c2cccnc12)C(F)(F)F (racemic) [Example 25, 3-(8-{2,2,2-Trifluoro-1-[4-methyl-2-(4-trifluoromethyl-phenyl)-thiazol-5-yl]-ethoxymethyl}-quinolin-5-yl)-4H-[1,2,4]oxadiazol-5-one]	544
Cc1nc(-c2ccc(C(F)(F)F)cc2)sc1C(OCc1ccc(-c2noc(=O)[nH]2)c(Cl)n1)C(F)(F)F (racemic) [Example 27, 3-(2-Chloro-6-{2,2,2-trifluoro-1-[4-methyl-2-(4-trifluoromethyl-phenyl)-thiazol-5-yl]-ethoxymethyl}-pyridin-3-yl)-4H-[1,2,4]oxadiazol-5-one]	1210
Cc1nc(-c2ccc(C(F)(F)F)cc2)sc1C(OCc1ccc(-c2noc(=O)[nH]2)cc1)C(F)(F)C1CC1 (racemic) [Example 32, 3-(4-{2-Cyclopropyl-2,2-difluoro-1-[4-methyl-2-(4-trifluoromethyl-phenyl)-thiazol-5-yl]-ethoxymethyl}-phenyl)-4H-[1,2,4]oxadiazol-5-one]	> 33000
CCCCC(Cc1ccc(-c2noc(=O)[nH]2)c(F)c1)c1sc(-c2ccc(C(F)(F)F)cc2)nc1C (racemic) [Example 34, 3-(2-Fluoro-4-{2-[4-methyl-2-(4-trifluoromethyl-phenyl)-thiazol-5-yl]-hexyl}-phenyl)-4H-[1,2,4]oxadiazol-5-one]	1070
CCC(Oc1ccc(-c2noc(=O)[nH]2)c(F)c1)c1sc(-c2ccc(C(F)(F)F)cc2)nc1C (racemic) [Example 35, 3-(2-Fluoro-4-{1-[4-methyl-2-(4-trifluoromethyl-phenyl)-thiazol-5-yl]-propoxy}-phenyl)-4H-1,2,4-oxadiazol-5-one]	269
CCC(Oc1ccc(-c2noc(=O)[nH]2)c(OC(F)F)c1)c1sc(-c2ccc(C(F)(F)F)cc2)nc1C (racemic) [Example 37, 3-(2-Difluoromethoxy-4-{1-[4-methyl-2-(4-trifluoromethyl-phenyl)-thiazol-5-yl]-propoxy}-phenyl)-4H-1,2,4-oxadiazol-5-one]	223
CCC(Oc1ccc(-c2noc(=O)[nH]2)c(OC)c1)c1sc(-c2ccc(C(F)(F)F)cc2)nc1CN1CCC(C(F)(F)F)CC1 (racemic) [Example 42, 3-(2-Methoxy-4-{1-[2-(4-trifluoromethyl-phenyl)-4-(4-trifluoromethyl-piperidin-1-ylmethyl)-thiazol-5-yl]-propoxy}-phenyl)-4H-1,2,4-oxadiazol-5-one]	> 33000
CCC(Oc1ccc(-c2noc(=O)[nH]2)c(OCC(F)(F)F)c1)c1sc(-c2ccc(C(F)(F)F)cc2)nc1C (racemic) [Example 48, 3-[4-{1-[4-Methyl-2-(4-trifluoromethyl-phenyl)-thiazol-5-yl]-propoxy}-2-(2,2,2-trifluoro-ethoxy)-phenyl]-4H-1,2,4-oxadiazol-5-one]	87
CC[C@@H](Oc1cc(OC)c(-c2noc(=O)[nH]2)cc1F)c1sc(-c2ccc(C(F)(F)F)cc2)nc1C [(+)-40, (+)-3-(5-Fluoro-2-methoxy-4-{(R)-1-[4-methyl-2-(4-trifluoromethyl-phenyl)-thiazol-5-yl]-propoxy}-phenyl)-4H-1,2,4-oxadiazol-5-one]	677
CC[C@@H](Oc1ccc(-c2noc(=O)[nH]2)c(OC(F)F)c1)c1sc(-c2ccc(C(F)(F)F)cc2)nc1CN1CCC(C(F)(F)F)CC1 [(+)-45, (+)-3-(2-Difluoromethoxy-4-{(R)-1-[2-(4-trifluoromethyl-phenyl)-4-(4-trifluoromethyl-piperidin-1-ylmethyl)-thiazol-5-yl]-propoxy}-phenyl)-4H-1,2,4-oxadiazol-5-one]	1230
